# What was measured:
# [1] = system: Rattus norvegicus; test: Anesthetic activity in rat at 0.5 uMol/site assessed as duration of full recovery of sensory block; format: functional
# [2] = system: Rattus norvegicus; test: Anesthetic activity in rat at 2.0 uMol/site assessed as duration of full recovery of sensory block; format: functional
# [3] = system: Rattus norvegicus; test: Anesthetic activity in rat at 1.0 uMol/site assessed as duration of full recovery of sensory block; format: functional
# [4] = system: Rattus norvegicus; test: Anesthetic activity in rat at 4.0 uMol/site assessed as duration of full recovery of sensory block; format: functional
# [5] = system: Ileum; test: Antispasmodic activity in guinea pig ileum assessed as inhibition of histamine-induced contraction; format: functional, tissue-based; conditions: Cavia porcellus
# [6] = system: Ileum; test: Antispasmodic activity in guinea pig ileum assessed as inhibition of allergen-induced contraction; format: functional, tissue-based; conditions: Cavia porcellus
# [7] = Activity at sodium channel assessed as blockade of sodium current
structure (smiles),measurement,setting,value
CCN(CC)CCC(=O)Nc1c(C)cccc1C,Time,[1],72 min
same,Time,[2],194 min
same,Time,[3],107 min
same,Time,[4],311 min
CCN(CC)CCC(=O)Nc1ccc(C)cc1C,Time,[1],35 min
same,Time,[2],166 min
same,Time,[3],89 min
same,Time,[4],239 min
CCN(CC)CC(=O)Nc1ccc(C)cc1C,IC50,[5],310 µM
same,Time,[1],17 min
same,Time,[2],63 min
same,Time,[3],32 min
same,IC50,[6],190 µM
same,Time,[4],92 min
CCN(CC)CC(=O)Nc1cccc(C)c1C,IC50,[5],380 µM
same,Time,[1],7 min
same,Time,[2],25 min
same,Time,[3],16 min
same,IC50,[6],330 µM
same,Time,[4],34 min
CCN(CC)CCC(=O)Nc1ccc(C)c(C)c1,Time,[1],26 min
same,Time,[2],80 min
same,Time,[3],48 min
same,Time,[4],107 min
CCN(CC)CCC(=O)Nc1cc(C)cc(C)c1,Time,[1],88 min
same,Time,[2],240 min
same,Time,[3],118 min
same,Time,[4],377 min
CCN(CC)CC(=O)Nc1ccccc1C,IC50,[5],160 µM
same,Time,[1],17 min
same,Time,[2],48 min
same,Time,[3],28 min
same,IC50,[6],160 µM
same,Time,[4],63 min
CCN(CC)CCC(=O)Nc1cc(C)ccc1C,Time,[1],22 min
same,Time,[2],72 min
same,Time,[3],47 min
same,Time,[4],101 min
CCN(CC)CC(=O)Nc1ccc(C)c(C)c1,Time,[1],11 min
same,Time,[2],32 min
same,Time,[3],20 min
same,Time,[4],55 min
CCN(CC)CC(=O)Nc1cc(C)ccc1C,IC50,[5],140 µM
same,Time,[1],19 min
same,Time,[2],40 min
same,Time,[3],28 min
same,IC50,[6],120 µM
same,Time,[4],54 min
CCN(CC)CC(=O)Nc1cccc(C(F)(F)F)c1,Time,[1],17 min
same,Time,[2],18 min
same,Time,[3],19 min
same,Time,[4],18 min
CCN(CC)CC(=O)Nc1cc(C)cc(C)c1,Time,[1],44 min
same,Time,[2],134 min
same,Time,[3],91 min
same,Time,[4],181 min
CCN(CC)CC(=O)Nc1ccc(C(F)(F)F)cc1,Time,[1],19 min
same,Time,[2],19 min
same,Time,[3],19 min
same,Time,[4],21 min
CCN(CC)CCC(=O)Nc1cccc(C)c1C,Time,[1],22 min
same,Time,[2],91 min
same,Time,[3],49 min
same,Time,[4],139 min
CCN(CC)CC(=O)Nc1ccccc1C(F)(F)F,IC50,[5],100 µM
same,Time,[1],8 min
same,IC50,[7],25400 µM
same,Time,[2],15 min
same,Time,[3],13 min
same,IC50,[6],50 µM
same,Time,[4],24 min
CCN(CC)CC(=O)Nc1c(C)cccc1C [LIDOCAINE],IC50,[5],1410 µM
same,Time,[1],37 min
same,IC50,[7],180 µM
same,Time,[2],103 min
same,Time,[3],74 min
same,IC50,[6],1430 µM
same,Time,[4],164 min
